Assay results from US11959100B2, “Method for culture of cells” (Kyoto University, priority 2017, dated 2024).

What was measured:
[1] = test system: neural crest cells; settings: bFGF 0 pg/ml to 10 ng/ml; adherent culture; cited from earlier work
[2] = test system: neural crest cells (NCCs); assay: Expansion (suspension) culture of neural crest cells: total cell number / rate of cell proliferation; assay type: cell-based, Human; settings: for influence of concentration on change in total cell number: bFGF and EGF 20 or 40 ng/ml, CHIR99021 1, 2, 3, 3.5, 4, 4.5 or 5 μM
Text: (§1) Human iPSCs were allowed to differentiate into neural crest cells (NCCs) according to the method described in Non Patent Literature 1. The iPSCs used were SOX10-Nano-Lantern Reporter Human iPSCs (201B7 line) described in Non Patent Literature 4. This cell line has an insert of a nucleotide sequence encoding a fluorescent protein Nano-Lantern (Saito K. et al., “Luminescent proteins for high-speed single-cell and whole-body imaging.” Nat. Commun., 2012; 3: 1262) downstream of SOX10 gene, a marker gene of NCCs, and expresses a fusion protein of SOX10 and Nano-Lantern under the control of SOX10 promoter.
(§2) iPSCs were inoculated to a Matrigel-coated dish, adherent-cultured for 4 days in TeSR1 medium, and then adherent-cultured for 10 days in CDM medium containing 10 μM SB431542 (TGFβ inhibitor) and 1 μM CHIR99021 (GSK3β inhibitor), and thereby allowed to differentiate into NCCs.
NCCs were detached from the dish and suspension-cultured in CDM medium containing 10 μM SB431542, 3 μM CHIR99021, 40 ng/ml bFGF and 40 ng/ml EGF. The cells were passaged every 7 days.
(§3) Change in total cell number after the start of expansion culture is shown in FIG. 1, and change in the percentage of SOX10 expression-positive cells is shown in FIG. 2. In order to measure the percentage of SOX10 expression-positive cells, an aggregated cell mass was dissociated using StemPro Accutase Cell Dissociation Reagent (Invitrogen Corp.) to prepare single-cell suspensions. The single-cell suspensions in FACS buffer (2% BSA HBSS) supplemented with 1 μg/mL PI (propidium iodide, Wako Pure Chemical Industries, Ltd.) were filtered through a tube with 35 μm nylon mesh (BD Falcon) and then analyzed using a flow cytometer (FACS Aria, BD Biosciences) to measure the ratio of GFP-positive cells in live cells (PI-negative cells). […] The expressed SOX10 serves as a marker of NCCs having multipotency.

[3] = test system: neural crest cells (NCCs); assay: Expansion (suspension) culture of neural crest cells: percentage of SOX10 expression-positive cells by flow cytometry; assay type: cell-based, Human; settings: for influence of concentration on change in the percentage of SOX10 expression-positive cells: bFGF and EGF 20 or 40 ng/ml
Text: as §1, §2
[…] The cells were passaged every 7 days.
as §3

[4] = test system: neural crest cells; settings: 1 μM CHIR99021; culture for 7 days; suspension culture; cited from earlier work
[5] = molecular target: GSK3β (Homo sapiens, UniProt P49841); assay: GSK3β inhibitory activity, CellSensor LEF/TCF-bla HCT-116 reporter assay; assay type: cell-based
Sequence of GSK3β (P49841 whole entry): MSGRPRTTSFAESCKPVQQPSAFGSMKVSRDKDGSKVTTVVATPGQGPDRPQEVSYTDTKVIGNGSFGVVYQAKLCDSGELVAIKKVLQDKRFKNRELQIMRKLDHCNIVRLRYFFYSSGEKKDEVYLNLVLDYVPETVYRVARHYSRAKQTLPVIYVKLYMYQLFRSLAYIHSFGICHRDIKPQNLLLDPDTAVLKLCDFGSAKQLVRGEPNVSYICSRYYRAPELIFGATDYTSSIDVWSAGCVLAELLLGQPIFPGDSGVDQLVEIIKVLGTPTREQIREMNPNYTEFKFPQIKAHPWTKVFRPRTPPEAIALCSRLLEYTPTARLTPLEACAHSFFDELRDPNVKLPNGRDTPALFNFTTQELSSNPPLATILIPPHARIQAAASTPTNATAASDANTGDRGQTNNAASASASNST
Text: In the Wnt/β-catenin pathway, GSK3β functions to phosphorylate β-catenin in the absence of Wnt-ligand. The phosphorylated β-catenin is ubiquitinated and degraded within the proteasome. Therefore, gene expression downstream of the Wnt-β-catenin pathway is suppressed. If GSK3β in this pathway is inhibited, β-catenin is translocated into the nucleus, without being degraded, to induce gene expression downstream of the Wnt-β-catenin pathway together with other transcription factors such as T-cell factor (TCF)/lymphoid enhancer factor (LEF). CellSensor LEF/TCF-bla HCT-116 Cell Line (Thermo Fisher Scientific Inc., K1676) stably incorporates therein LEF/TCF and incorporates a reporter gene (beta-lactamase reporter gene) so as to express the reporter gene under the control of LEF/TCF. The expression of the reporter gene in this cell line in the absence of the Wnt-ligand serves as an index for the inhibition of the function (β-catenin phosphorylation function) of GSK3β. The GSK3β inhibitory activity of the GSK3β inhibitor was measured by assay using this cell line.
The assay was conducted in accordance with the protocol of Invitrogen Corp. (CellSensor® LEF/TCF-bla HCT 116 Cell-based Assay Protocol).
Specifically, LEF/TCF-bla HCT-116 Cells were suspended in an assay medium (OPTI-MEM, 0.5% dialyzed FBS, 0.1 mM NEAA, 1 mM sodium pyruvate, 100 U/mL/100 μg/mL Pen/Strep) (312,500 cells/mL). The cell suspension was inoculated to each well of an assay plate (10,000 cells/well), and cultured for 16 to 24 hours.
A beta-lactamase substrate solution (LiveBLAzer-FRET B/G (CCF4-AM) Substrate Mixture) was added to each well (8 μL/well) and incubated for 2 hours. A fluorescence value was measured in a fluorescence plate reader. The measurement was performed in two wells per each concentration condition.

[6] = bFGF 10, 12.5, 15.0 or 17.5 ng/ml, CHIR99021 1.5 μM

Compound: bFGF: basic fibroblast growth factor (bFGF (also referred to as FGF2)), medium additive
- number and ratio of neural crest cells in a cultured cell population [1]: decreased in a concentration-dependent manner
- behavior of change in total cell number [2, 6]: substantially the same
- influence of concentration on change in total cell number [2]: no influence
- influence of bFGF concentration on the percentage of SOX10 expression positivity [3, 6]: no influence
- influence of concentration on change in the percentage of SOX10 expression-positive cells [3]: no influence

Compound: Cn1cc(C2=C(c3cccc(N)c3)C(=O)NC2=O)c2ccccc21 [CP21R7, 3-(3-amino-phenyl)-4-(1-methyl-1H-indol-3-yl)-pyrrole-2,5-dione]
- time of culture at which the number of cells that maintained multipotency decreased ([3]; CP21R7 0.1 μM): 21 days
- percentage of SOX10 expression-positive cells ([3]; CP21R7 0.1 μM, on 21 days of culture): started to decrease
- percentage of SOX10 expression-positive cells ([3]; CP21R7 0.5 or 1 μM, on 84 days of culture): high percentage of SOX10 expression-positive cells was confirmed
- period of culture and proliferation of neural crest cells that maintained multipotency ([3]; CP21R7 0.5 to 1 μM): ≥ 84 days

Compound: Cc1c[nH]c(-c2cnc(NCCNc3ccc(C#N)cn3)nc2-c2ccc(Cl)cc2Cl)n1 [CHIR99021, 6-[[2-[[4-(2,4-dichlorophenyl)-5-(4-methyl-1H-imidazol-2-yl)-2-pyrimidinyl]amino]ethyl]amino]nicotinonitrile]
- change in total cell number after the start of expansion culture ([2]; 3 μM CHIR99021, 10 μM SB431542, 40 ng/ml bFGF, 40 ng/ml EGF, whole culture period): increased over the whole period
- influence of concentration on change in total cell number [2]: no influence
- presence of Sox10-positive cells [4]: presence of Sox10-positive cells was confirmed
- Fluorescence value Well 1 ([5]; 0.316 nM): 6
- Fluorescence value Well 2 ([5]; 0.316 nM): 0
- Fluorescence value Well 1 ([5]; 1.00 nM): 0
- Fluorescence value Well 2 ([5]; 1.00 nM): 0
- Fluorescence value Well 1 ([5]; 3.16 nM): 0
- Fluorescence value Well 2 ([5]; 3.16 nM): 14
- Fluorescence value Well 1 ([5]; 10.0 nM): 12
- Fluorescence value Well 2 ([5]; 10.0 nM): 23
- Fluorescence value Well 1 ([5]; 31.6 nM): 21
- Fluorescence value Well 2 ([5]; 31.6 nM): 45
- Fluorescence value Well 1 ([5]; 100 nM): 75
- Fluorescence value Well 2 ([5]; 100 nM): 60
- Fluorescence value Well 1 ([5]; 316 nM): 101
- Fluorescence value Well 2 ([5]; 316 nM): 96
- GSK3β inhibitory activity in terms of the fluorescence value (mean from the two wells) ([5]; 1 μM): 113.5
- Fluorescence value Well 1 ([5]; 1000 nM): 114
- Fluorescence value Well 2 ([5]; 1000 nM): 113
- Fluorescence value Well 1 ([5]; 3160 nM): 99
- Fluorescence value Well 2 ([5]; 3160 nM): 136
- Fluorescence value Well 1 ([5]; 10000 nM): 88
- Fluorescence value Well 2 ([5]; 10000 nM): 73
- percentage of SOX10 expression-positive cells ([3]; 3 μM CHIR99021, 10 μM SB431542, 40 ng/ml bFGF, 40 ng/ml EGF, on 121 days of culture): high percentage of SOX10 expression-positive cells was confirmed
- time of culture at which the number of cells that maintained multipotency decreased ([3]; CHIR99021 1 μM): 21 days
- percentage of SOX10 expression-positive cells ([3]; CHIR99021 1 μM, on 21 days of culture): decrease in the percentage of SOX10 expression-positive cells was observed
- percentage of SOX10 expression-positive cells ([3]; CHIR99021 1 μM, on 63 days of culture): ≤ 25%
- period over which multipotency was maintained ([3]; CHIR99021 2 μM): ≥ 63 days
- percentage of SOX10 expression-positive cells ([3]; CHIR99021 2 μM, on 63 days of culture): ≥ 55%
- time of culture at which the number of cells that maintained multipotency decreased ([3]; CHIR99021 5 μM): 42 days
- percentage of SOX10 expression-positive cells ([3]; CHIR99021 5 μM, on 63 days of culture): ≤ 5%
- percentage of SOX10 expression-positive cells ([3]; CHIR99021 5 μM, up to 42 days of culture): ≥ 55%
- period of culture and proliferation of neural crest cells that maintained multipotency ([3]; CHIR99021 3 to 4.5 μM): ≥ 112 days
- percentage of SOX10 expression-positive cells ([3]; CHIR99021 3 to 4.5 μM, on 121 days of culture): ≥ 90%

Compound: EGF: epidermal growth factor, medium additive
- influence of concentration on change in total cell number [2]: no influence
- influence of concentration on change in the percentage of SOX10 expression-positive cells [3]: no influence
